Data taken from patent US20080317876A1, “USE OF A MAGNESIUM ISOTOPE FOR TREATING HYPOXIA AND A MEDICAMENT COMPRISING THE SAME” (priority 2007, published 2008).
Converted amounts (≈) assume the structure as drawn.

Experiments:
[1] = unmodified C60-fullerene; cited from earlier work
[2] = Cationite capacity; assay type: physicochemical
[3] = tested on: heart muscle mitochondria membranes; experiment: Retention of the drug by heart muscle mitochondria membranes after a single i.v. injection; assay type: in vivo
[4] = tested on: heart muscle tissue (rat myocardium) under hypoxia; assay type: in vivo
Description: Same tests were also performed in inhalation hypoxia model specified below (FIG. 14-16).
The following in vivo experimental hypoxia models were employed:
(1) Medicinal hypoxia syndrome A (1-methylnicotineamide (MNA), 10-20 mg/kg i.v. once per 24 hrs); […] (2) Medicinal hypoxia syndrome B (DXR 60-80 mg/kg i.v. once per 24 hrs); (3) The oxygen depleted inhalation model (10-20 day long exposition of rats to the artificial gas mixture to breath with, 12-16% oxygen/84-88% nitrogen, v/v).
Male adult Wistar Albino Glaxo rats (180-220 gms) were used, 3-4 animals per each experimental point.

Question: For `c12c3c4c5c1c1c6c7c2c2c8c3c3c9c4c4c%10c5c5c1c1c6c6c%11c7c2c2c7c8c3c3c8c9c4c4c9c%10c5c5c1c1c6c6c%11c2c2c7c3c3c8c4c4c9c5c1c1c6c2c3c41` [C60-fullerene], which solubility [1] is on record?
Answer: The solubility was 1.3e-05 ng/mL (≈ 1.8e-05 nM).

Question: What does the source list for “fullerene (C60)-2-(butadiene-1-yl)tetra(o-γ-aminobutyryl-o-phtalyl)ferroporphyrin [PMC16]”?
Answer: cationite capacities [2]: 320-370 meqv/mmol; time the drug molecule is retained by heart muscle mitochondria membranes [3]: not less than a week; protecting the heart muscle tissue from the damaging impact promoted by hypoxia ([4]; hypoxia of any sort, even at extra low doses): efficient; safety of long term multiple administration of extra low doses ([4]; in vivo): totally safe; effect in medicinal hypoxic cardiotoxicity cases (DXR, MNA) ([4]; long term multiple administration, extra low doses): marked prophylactic and therapeutic effect
